# Reference: PMC8950868, “Identifying Human PTP1B Enzyme Inhibitors from Marine Natural Products: Perspectives for Developing of Novel Insulin-Mimetic Drugs” (Pharmaceuticals, 2022)
# “Also recorded” adds a separate entry of the source.
# Assays:
# [1] = biological target: T1, human recombinant PTP1B (1–302) (Homo sapiens, UniProt P18031); assay: PTP1B enzymatic assay (p-NPP hydrolysis; preliminary screening and IC50); assay type: biochemical; settings: for Effect on PTP1B activity in preliminary screening: 20 µM of each compound, 30 min; for IC50: 2.5 mM p-NPP, pH 7.0, 37 °C, mean ± SD (n = 3), read-out: IC50 values determined on PTP1B
# T1 construct: human recombinant PTP1B (1–302)
# T1 sequence (P18031 1-302): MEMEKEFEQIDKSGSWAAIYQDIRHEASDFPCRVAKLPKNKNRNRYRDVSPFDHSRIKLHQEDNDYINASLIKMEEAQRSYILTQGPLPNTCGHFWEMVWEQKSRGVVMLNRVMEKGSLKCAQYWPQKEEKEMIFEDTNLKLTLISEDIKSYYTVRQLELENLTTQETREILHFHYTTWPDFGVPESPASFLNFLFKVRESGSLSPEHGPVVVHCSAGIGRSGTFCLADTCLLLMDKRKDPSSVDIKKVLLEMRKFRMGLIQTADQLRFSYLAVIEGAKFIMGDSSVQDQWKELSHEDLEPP
# Method: We performed enzymatic assays as previously described. For each assay, an aliquot of human recombinant PTP1B (1–302) was added in the assay buffer (0.075 M β,β-dimethylglutarate pH 7.0 containing 1 mM EDTA, 0.1 mM DTT and a p-nitrophenylphosphate (p-NPP) (Chemcruz, Santa Cruz Biotechnology (Santa Cruz, CA, USA)). The reactions were performed at 37 °C in a final volume of 1 mL. After adequate time (30 min) of incubation, the reactions were stopped adding 2 mL of 0.1 M KOH in each sample. The released amount of p-nitrophenol, product of the reaction, was determined by measuring the absorbance at 400 nm in a 1 cm pathlength cuvette.
# The IC50 value of compounds against PTP1B was determined by measuring the hydrolysis rate of the enzyme in the presence of a fixed substrate concentration (2.5 mM p-NPP) and increasing inhibitor concentrations (generally 14–16 different concentrations). Each test was carried out in triplicate. Experimental data were normalized respect to control samples and then fitted using a non-linear fitting software, using the following equation: Vi/V0=Max−Min/1+x/IC50^slope+Min where the Vi/V0 value represents the relative activity calculated in presence of each inhibitor concentration; the maximum and minimum value of the activity are represented by “Max” and “Min”, respectively; “x” is the concentration of the inhibitor; IC50 is the inhibitor concentration able to decrease the enzymatic activity up to 50%; “slope” represents the slope of the curve in the transition zone.
# Figure 2 Preliminary screening assay on PTP1B. All assays were started by diluting an aliquot of PTP1B in the assay solution containing substrate alone (control test) or substrate and an aliquot of each compound (20 µM, final concentration). After 30 min, the reactions were stopped by adding a concentrated KOH solution. The enzyme activity was determined by measuring the amount of p-nitrophenol that was released in each sample using a spectrophotometer. Data obtained were normalized respect to control sample. […] Statistical analysis was carried out using one way ANOVA followed by Tukey’s HSD test for pairwise comparisons. Statistics have been drawn on raw data and compare samples to control (Ctr). * p < 0.05; ** p < 0.01.
# Figure 3 Determination of the IC50 values with compounds 3, 8a, 8b, 9a and 9b. An aliquot of PTP1B enzyme was diluted in the presence of increasing concentration of the compounds. The activity of PTP1B was determined by measuring the absorbance of the sample at 400 nm, using a spectrophotometer. Data obtained were normalized respect to the control sample and analysed using a non-linear fitting software.
# human recombinant AR = biological target: T2, human recombinant AR (Homo sapiens, UniProt P15121); assay: AR enzymatic assay (NADPH oxidation, L-idose substrate); assay type: biochemical; settings: for remaining activity at 71 µM: 71 µM (maximal concentration used), read-out: % residual activity of human AR
# T2 construct: made in house
# Method: The human recombinant AR, purified to electrophoretic homogeneity as described, was used as target enzyme. AR activity was determined at 37 °C as previously described by evaluating the decrease in absorbance at 340 nm linked to NADPH oxidation using a Biochrom Libra S60 spectrophotometer. The standard assay mixture contained 0.25 M sodium phosphate buffer pH 6.8, 0.18 mM NADPH, 0.42 M ammonium sulfate, 0.5 mM EDTA and 4.7 mM D,L-glyceraldehyde. One unit of enzyme activity is the amount that catalyses the conversion of 1 µmol of substrate/min in the above assay conditions. For AR inhibition studies, 0.8 mM L-idose was used as substrate in the conditions described above, in the presence of 10 mU of enzyme and of a final concentration of DMSO of 0.7% (v/v).
# C2C12 cells = assay: Insulin signalling pathway analysis (western blot of pIR and pAkt); assay type: cell-based, murine; settings: for Effect on insulin signalling pathway: differentiated C2C12 cells
# Method: C2C12 cells were plated on P35 dishes, grown until 80% confluence and then incubated in the presence of differentiation medium (DMEM-high glucose (4500 mg/L) supplemented with 2% Horse serum (HS, Euroclone), 2 mM glutamine, 100 U/mL penicillin, and 100 μg/mL streptomycin) for 4 days. After this time, cell plates were washed with PBS and cells stimulated with 10 nM insulin, compound 3 or insulin-compound 3 combination for 30 min. After cell plates were washed with cold PBS solution and lysed using 1X Leammli sample buffer. Samples were store at 4 °C for 15 min and then protein solutions were collected and boiled for 5 min. Proteins were analysed by SDS-PAGE and then transferred on a PVDF membrane by western blot. Phosphorylation status of insulin receptor and the kinase Akt was evaluated using specific antibodies (pIR β subunit, Y1162/1163 (sc-25103-R) and β-actin, clone C-4 (sc-47778) were from Santa Cruz Biotechnology (Santa Cruz, CA, USA); IR β subunit, clone CT-3 (MABS65) was from Merck-Millipore (Burlington, MA, USA). Akt (9272S) and p-Akt (9271S) antibodies were from Cell Signalling Technology (Danvers, MA, USA). Secondary antibodies were from Santa Cruz Biotechnology (Santa Cruz, CA, USA). Detection was performed using Clarity western ECL substrates (Bio-Rad Laboratories, Inc.).
# Figure 12 Effect of compound 3 on insulin signalling pathway. C2C12 cells were incubated with compound 3 (20 µM final concentration) for 30 min, in the presence or not of insulin (10 nM). After that, cells were lysed, and cellular extracts were analysed to evaluate the phosphorylation status of IR and Akt. (A), western blot image; (B,C), quantitation of western blot carried out using Kodak MI software. Data were normalized respect to control sample. All tests were carried out in triplicate. Ctr: control experiment; Ins: cells treated with 10 nM insulin; 3: cells treated with compound 3 (20 µM); 3 + Ins, cells treated with insulin and compound 3. Statistical analysis was carried out using one way ANOVA followed by Tukey’s HSD test for pairwise comparisons. * p < 0.05.
# [2] = 20 µM compound + 10 nM insulin, versus insulin alone
# [3] = 20 µM compound alone, 30 min, versus control cells
Effect on PTP1B activity in preliminary screening [1],IC50 [1] [µM],remaining activity at 71 µM (human recombinant AR) [%],AR inhibition (in words) (human recombinant AR),SMILES,Effect on insulin signalling pathway (C2C12 cells),Phosphorylation level of Akt (C2C12 cells; [2]),Phosphorylation level of insulin receptor (IR) (C2C12 cells; [2]),Phosphorylation level of Akt (C2C12 cells; [3]),Phosphorylation level of insulin receptor (IR) (C2C12 cells; [3])
reducing PTP1B activity,16 ± 2,87 ± 2,–,CCCCC[C@@H](OP(=O)(O)O)[C@@H](O)CC[C@H](CCCC)OC(C)=O (relative stereo) [Compound 8a],did not improve the insulin signalling pathway; also recorded: completely inactive,–,–,–,–
reducing PTP1B activity,6.7 ± 3.3,82 ± 3,ineffective,CCCCCCCCCCCCCCC(OP(=O)(O)O)C(O)CCCO (stereo not shown) [Compound 3],acts as an insulin-mimetic agent; also recorded: evident insulin-mimetic activity,not statistically different,not statistically different,increased with respect to control cells,increased with respect to control cells
